Data on five substances can be found in ChEMBL document CHEMBL1156774, “Design of O-acetylserine sulfhydrylase inhibitors by mimicking nature” (J Med Chem, 2010).

For assay [1], the target named is T1, Cysteine synthase (Haemophilus influenzae (strain ATCC 51907 / DSM 11121 / KW20 / Rd)) (UniProt P45040).
T1 sequence (whole entry): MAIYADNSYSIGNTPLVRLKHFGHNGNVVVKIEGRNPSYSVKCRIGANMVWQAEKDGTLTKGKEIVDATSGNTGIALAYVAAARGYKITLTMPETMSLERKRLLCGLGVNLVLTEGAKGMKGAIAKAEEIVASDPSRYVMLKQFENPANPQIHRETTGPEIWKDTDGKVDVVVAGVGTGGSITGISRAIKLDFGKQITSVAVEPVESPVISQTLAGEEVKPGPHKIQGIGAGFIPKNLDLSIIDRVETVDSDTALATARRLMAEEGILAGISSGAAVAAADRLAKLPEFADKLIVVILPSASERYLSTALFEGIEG
The assay is described as follows: (§1) Binding affinity to Haemophilus influenzae O-acetylserine sulfhydrylase expressed in Escherichia coli BL21 (DE3) by fluorescence emission spectra analysis.

Another assay deals with T2, Cysteine synthase (Haemophilus influenzae (strain ATCC 51907 / DSM 11121 / KW20 / Rd), UniProt P45040).
T2 sequence (P45040 whole entry): T1 sequence (whole entry)
The description is as §1.

On to H-MNLGI-OH, for which, in assay [1], the Kdiss turned out to be 570 µM. Further, at Cysteine synthase, the Kd is 0.575 mM.
For H-MNVPI-OH the same measures were 3330 µM and 3.31 mM.
For the substance H-MNYSI-OH, in assay [1], the Kdiss came out at 60.8 µM. The Kd on Cysteine synthase is 0.0603 mM.
For H-MNEGI-OH the same measures were 2270 µM and 2.29 mM.
For H-MNDGI-OH the same measures were 1030 µM and 1.02 mM.
